# In patent publication US20220039390A1, “USE OF […] FOR C[…] VEGETATION IN BETA VULGARIS GROWING AREAS” (KWS SAAT SE & Co. KGaA, priority 2018, published 2022):
# Columns and labels:
# [1] = test system: sugar beet (Beta vulgaris); assay: Glyphosate selection of mutagenized (EMS/ENU) M2 sugar beet plants, field spray then greenhouse treatment; assay type: in vivo; conditions: 600 g/ha glyphosate acid equivalent
# Description: 6 kg seeds of sugar beet elite line T807 (3BT1760, MO population) were mutagenized with 0.5% EMS and 0.3% and 0.5%, respectively ENU, and subsequently drilled for steck production. Stecks were replanted for seed production occupying an area of 5.8 ha. M1 population sizes were 75,000 seed producing plants for EMS and 19,000 plants for ENU mutagenized seeds. The following M2 seed amounts (values given for purified seed) has been obtained: 240 kg for 0.5% EMS (idents A and B), 548 kg for 0.3% ENU (idents C and D), and 256 kg 0.5% ENU (idents E and F).
# 176 kg of idents A and B and 75 kg of idents C, D, E and F were sown on an approximately 15 ha spanning field site. Approximately 1 month after sowing, the entire field was sprayed with 0.88 I/ha ROUNDUP® MAX (680 g/kg glyphosate acid equivalent). Approximately 6 weeks later, plants surviving the glyphosate treatment were collected in the field, transplanted to pots and further cultivated in the greenhouses. Surviving plants were treated with 600 g/ha glyphosate acid equivalent about 2 months later. 172 plants survived that treatment in a very healthy stage without any signs of herbicide damage.
# In order to identify the causative mutation behind the observed herbicide resistance sequencing analyses have been performed. […]
# [2] = acid form, 25° C.; cited from earlier work
smiles,measurement,setting,value
"O=C(O)CNCP(=O)(O)O [glyphosate, N-phosphonomethylglycine]",resistance conferred by heterozygous P179S mutation in BvEPSPS,"[1]; approx. 50% of standard field treatment level, based on screening and selection",complete resistance
same,plants that survived treatment in a very healthy stage without any signs of herbicide damage,[1]; potted greenhouse plants that had survived the ROUNDUP MAX field spray,172 plants
same,solubility in water,[2],1.16 % by weight
